Test results reported in patent publication US20250235543A1, “MODIFIED PROTEINS AND PROTEIN DEGRADERS” (Cullgen (Shanghai), Inc., priority 2021, published 2025).

How the values were obtained:
Format in all cases: cell-based
[1] = tested on: Rb phosphorylation, cleaved caspase-3; assay: Immunoblotting of downstream Rb phosphorylation and cleaved caspase-3 in Calu-1 or BT-549 cells; details: 16 hours
Experimental: (§1) Calu-1 (FIG. 2A) or BT-549 (FIG. 2B) cells were treated with CPD-002, CPD-004, or palbociclib at indicated concentrations for 16 hours.
(§2) Cultured cells were washed with cold PBS once and lysed in cold RIPA buffer supplemented with protease inhibitors and phosphatase inhibitors (Beyotime Biotechnology). The solutions were then incubated at 4° C. for 30 min with gentle agitation to fully lysed cells. Cell lysates were centrifuged at 13,000 rpm for 10 min at 4° C. and pellets were discarded. Total protein concentrations in the lysates were determined following BCA assays (Beyotime Biotechnology). Cell lysates were mixed with Laemmli loading buffer and heated at 99° C. for 5 min. Proteins were resolved on SDS-PAGE and visualized using Western ECL Substrate kits on a ChemiDoc MP Imaging system (Bio-Rad). Protein bands were quantitated using the Image Lab software provided by Bio-Rad.

[2] = tested on: cyclin D1, cyclin D2, cyclin D3, CDK4 and CDK6; assay: Immunoblotting of cyclin D and CDK4/6 protein levels in BT-549 cells; details: indicated concentrations, 16 hours
Experimental: as §1, §2

[3] = tested on: CDK4, CDK6; assay: Immunoblot of CDK4 and CDK6 protein levels in Calu-1 cells; details: 500 nM CPD-002
Experimental: Specific exemplary heterobifunctional compounds were characterized in Calu-1, BT-549 and other cells. Cells that express cyclin D1-3 and CDK4/6 proteins were treated with heterobifunctional compounds disclosed herein at indicated concentrations for 16 hours. Cells were collected, lysed and subject to immunoblotting using an antibody specific to cyclin D1, cyclin D2, cyclin D3, CDK4, CDK6 or phosphorylated R^b proteins. Tubulin or GAPDH was used as the loading control. DMSO treatment was used as the negative control.
In a time-course study, Calu-1 cells were treated with 500 nM CPD-002, or 100 nM CPD-031 for indicated period of time prior to immunoblotting (FIG. 4A-4B).
To verify that heterobifunctional compound-mediated degradation is dependent on the binding to CDK4-cyclin D complex, we designed three negative control compounds, CPD-042, CPD-049 and CPD-380, which are derived from CPD-002 CPD-031 and CPD-343, respectively. These three control compounds bear the same DDB1 ligand and linker as their corresponding active heterobifunctional compounds but with modified warheads to impair the binding of the control compounds to CDK4. […] Two cereblon (CRBN)-recruiting reference heterobifunctional compounds, CP-10 (Su, J Med Chem, 2019; CAS No.: 2366268-80-4) and BSJ-03-123 (Brand, Cell Chem Biol, 2019; CAS No.: 2361493-16-3) were analyzed in Calu-1 cells.

[4] = tested on: MDA-MB-468; assay: Cell viability assay, MDA-MB-468; details: Homo sapiens, 72 h; MDA-MB-468, TNBC, 3 days; read-out: Cellular Anti-proliferation activity (IC50)
Experimental: Cells were treated with CDK4/6 inhibitors palbociclib, ribociclib, or abemaciclib, or heterobifunctional compounds CPD-002 or CPD-031 following a 9-point serial dilution for 3 days.
Cells were seeded at a density of 2,000-5,000 cells per well in 96-well assay plates and treated with test compounds following a 10-point serial dilution for 3-6 days. Cell viability was determined using the CellTiter-Lumi assay kit according to the manufacturer's instructions. The dose-response curves were determined and IC50 values were calculated using the GraphPad Prism software following a nonlinear regression (least squares fit) method. Data presented was mean±standard deviation (SD) unless otherwise indicated.

[5] = tested on: cyclin D1; assay: Cyclin D1 degradation in parental and DDB1 knockout Hs578T cells; details: dose range, 4 hours
Experimental: Parental and DDB1 knockout Hs578T cells were treated with a dose range of CPD-031 for 4 hours (FIG. 5C).
The procedures for CRISPR-Cas9 mediated knock-out followed the previously published protocols (Ran et al., 2013). The sgRNA targeting human DDB1 (sgRNA sequence: […]) (SEQ ID NO: 1) was designed using the online CRISPR Design Tool (chopchop.cbu.uib.no/), and constructed into CRISPR-Cas9 vector, pLentiCRISPR V2 (Addgene #52961). Lentivirus was produced in HEK293T cells by co-transfecting pLentiCRISPR construct with packing vectors. Hs578T cells stably expressing Cas9 enzyme and sgRNA were established by lentivirus transduction, selected, and maintained in medium containing […] puromycin.
as §2, with “Proteins were resolved on SDS-PAGE and visualized using Western ECL Substrate kits on a ChemiDoc MP Imaging system (Bio-Rad).” left out

Structure (SMILES)	downstream Rb phosphorylation and cleaved caspase-3 [1]	cyclin D1, cyclin D2, cyclin D3, CDK4 and CDK6 protein levels [2]	degradation of CDK4 and CDK6 relative to cyclin D, time-course [3]	IC50 [4] [nM]	cyclin D1 degradation in DDB1 knockout versus parental cells [5]
CC(=O)c1c(C)c2cnc(Nc3ccc(N4CCN(CC(=O)NCCOCCOCCOCCOCCOCCNc5ccc(C(=O)Nc6ncc(C)s6)c(C)c5)CC4)cn3)nc2n(C2CCCC2)c1=O [CPD-002, 4-((1-(4-(6-((6-Acetyl-8-cyclopentyl-5-methyl-7-oxo-7,8-dihydropyrido[2,3-d]pyrimidin-2-yl)amino)pyridin-3-yl)piperazin-1-yl)-2-oxo-6,9,12,15,18-pentaoxa-3-azaicosan-20-yl)amino)-2-methyl-N-(5-methylthiazol-2-yl)benzamide]	inhibited downstream Rb phosphorylation and induced cleaved caspase-3 in a concentration-dependent manner	reduced cyclin D1, cyclin D2, cyclin D3, CDK4 and CDK6 protein levels in a concentration-dependent manner	occurred much slower	1480	
CC(=O)c1c(C)c2cnc(Nc3ccc(N4CCN(CC(=O)NCCOCCOCCOCCOCCOCCNc5ccc(C(=O)Nc6nc(C)c(C)s6)c(C)c5)CC4)cn3)nc2n(C2CCCC2)c1=O [CPD-031, 4-((1-(4-(6-((6-Acetyl-8-cyclopentyl-5-methyl-7-oxo-7,8-dihydropyrido[2,3-d]pyrimidin-2-yl)amino)pyridin-3-yl)piperazin-1-yl)-2-oxo-6,9,12,15,18-pentaoxa-3-azaicosan-20-yl)amino)-N-(4,5-dimethylthiazol-2-yl)-2-methylbenzamide]					partially compromised by depletion of DDB1 E3 ligase
